The METLIN SMRT retention time set (Domingo-Almenara et al. 2019)

Experiment: gradient 5% acetonitrile 3 min, to 50% in 2 min, to 85% in 15 min, held 3 min, 100 µL/min
Conditions: column: Zorbax Extend-C18 2.1 x 50 mm; eluents: water / acetonitrile, 0.1% formic acid
In short: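 Retention times of pure standards were taken from adduct peaks that were selected by computer and manually inspected. Over 3 months, mixtures of ~100 molecules were run by HPLC–quadrupole time-of-flight mass spectrometry in positive and negative ionization mode. The Zorbax Extend-C18 column (2.1 × 50 mm, 1.8 μm) ran at 100 μL/min in water and acetonitrile, each containing 0.1% formic acid, with 40 μL dead volume and 900 μL dwell volume.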

SMILES | RP-LC retention time
COc1ccccc1-c1noc(C2CCCN2C(=O)c2cnccn2)n1 (stereo not drawn) | 720 s
CCOC(=O)c1sc(NC(=O)COc2ccc(Cl)cc2)nc1C | 970 s
Cc1ccc(NC(=O)Cn2cnc3nc(-c4cccnc4)ncc3c2=O)cc1F | 656 s
O=C(NCCC1=CCCCC1)C1CCN(c2cnc3nccnc3c2)CC1 | 737 s
NC1N=C(c2ccccc2)c2ccccc2NC1=O (stereo not drawn) | 568 s
O=C1CCCc2cc(S(=O)(=O)N3CCC(C(=O)N4CCCCCC4)CC3)ccc2N1 | 716 s
CCc1cc(N2CCN(C(=O)c3cccc(C#N)c3)CC2)nc2nncn12 | 589 s
CCn1cc(S(=O)(=O)NCc2cccc(Cl)c2)c2cccnc21 | 862 s
Cc1ccc(CNC(=O)c2cn(-c3ccc(NC(=O)C4CC4)cn3)cn2)cc1C | 818 s
Cc1ccc(-c2noc(-c3ccc(N4CCN(c5ccccn5)CC4)nc3)n2)cc1 | 805 s
CCOC(=O)C1CCN(C(=O)C2CCCN(c3cnc4nccnc4c3)C2)CC1 (stereo not drawn) | 686 s
Cc1ccc(NC(=O)Nc2cnn(-c3ncncc3N3CCOCC3)c2)cc1C | 674 s
COc1ccc2c(c1)C1(CCN(S(=O)(=O)c3cccs3)C1)C(=O)N2 (stereo not drawn) | 790 s
Cc1cc(NS(=O)(=O)c2ccc3c(c2)CCCC(=O)N3)ccc1Br | 774 s
COCCNC(=O)N1CCCC(COC)C1 (stereo not drawn) | 578 s
Cn1cc2c3c(cccc31)CN(C(=O)Cc1ccccc1F)CC2 | 954 s
Cc1cc(=O)n(CC(=O)NC(C)CCc2ccccc2)c(N2CCOCC2)n1 (stereo not drawn) | 713 s
Cc1cccc(NC(=O)CSc2nccc(N3CCN(c4cc(C)ccc4C)CC3)n2)c1 | 917 s
CCN1C(=O)c2cccnc2Sc2cc(NC(=O)COc3ccccc3C)ccc21 | 860 s

SMILES | RP-LC retention time
CCCNC(=O)c1n[nH]c2c1CCCCCC2 | 776 s
Cn1nc(-c2nnc(-c3ccc(F)cc3)o2)c2c1CCN(S(=O)(=O)c1ccc(Cl)s1)C2 | 1010 s
O=C(Nc1cccc2nsnc12)C1CCN(S(=O)(=O)N2CCCC2)CC1 | 862 s
O=S(=O)(c1ccc(Cl)cc1)N1CCc2nc(-c3ccc(Cl)cc3)ncc2C1 | 1270 s
Cc1cc(-c2ccc(S(=O)(=O)N3CCC(C(=O)N4CCCC4)CC3)o2)n[nH]1 | 679 s
COc1cccc(-c2[nH]ncc2CNS(=O)(=O)c2cc(OC)ccc2OC)c1 | 756 s
O=C(NCc1ccccc1Cl)c1cn2c(n1)CCCC2 | 613 s
Cc1noc(C)c1CN1CCC(NC(=O)c2cccc(C#N)c2)C1 (stereo not drawn) | 578 s
Cc1ccc(/C=C/c2nc(-c3ccc4c(c3)oc(=O)n4C)no2)cc1 | 1110 s
O=C(c1ccc2oc(=O)n(CC(=O)N3CCc4ccccc43)c2c1)N1CCCCC1 | 845 s
O=C(NC1CCCC1)c1cccnc1N1CCCCC1 | 684 s
CC(C)NC(=O)N1CCOc2ccccc21 | 774 s
O=C(Cn1c(=O)c2cccn2c2ccc(F)cc21)NCC1CCCO1 (stereo not drawn) | 703 s
O=C(NCC1CC1)c1ccc2nc(-c3ccccc3)cn2c1 | 629 s
O=C(Cn1ccn2nc(-c3ccccc3)c(CO)c2c1=O)Nc1ccccc1F | 865 s
CCNC(=O)C1CCCN(c2nc3ncn(CC(=O)Nc4ccc(C(C)C)cc4)c(=O)c3s2)C1 (stereo not drawn) | 759 s
COc1ccccc1N1CCN(Cc2nc3nc(C)cc(N4CCCC4)n3n2)CC1 | 606 s
CCCCn1cc(S(=O)(=O)NC2CCCCC2)c2cccnc21 | 1010 s
O=C(Nc1nc2c(s1)CN(C(=O)Cn1c(=O)oc3ccccc31)CC2)C1CCCO1 (stereo not drawn) | 665 s
